# The source made the active and inactive calls. For most assays here, no stated cut-off is given here; in the data, actives have a measured EC50 and inactives only a lower limit.
# Experiments:
# BJ [1] = assay: cytotoxicity toward BJ-TERT fibroblasts, dose response, cell-based, RAS-independent, luminescence (AID 1933); assay type: functional; conditions: Homo sapiens
# BJ [2] = assay: cells; assay type: functional, cell-based; conditions: Homo sapiens
# BJ [3] = assay: cytotoxicity toward BJ-TERT-LT-ST fibroblasts, dose response, cell-based, RAS-independent, luminescence (AID 1935); assay type: functional; conditions: Homo sapiens;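 further: BJ fibroblasts immortalized with TERT plus LT and ST oncogenes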
# [4] = cytotoxicity toward DRD oncogenic fibroblasts, dose response, cell-based, non-viral oncogenic, luminescence (AID 1934); assay type: functional; conditions: Homo sapiens
# [5] = biological target: T1, Heat shock factor protein 1 (Mus musculus, UniProt P38532); assay: HSF1 potentiators in luciferase reporter cells, confirmation, cell-based, NIH3T3, luminescence, dose retest (AID 435004); assay type: functional;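 further: stress induced by proteasome inhibitor MG132 added 30 min after compound; luciferase reporter driven by HSF1 response element in NIH3T3 cells; actives raise luminescence as potentiators of the MG132 stress response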
# T1 sequence (P38532 whole entry): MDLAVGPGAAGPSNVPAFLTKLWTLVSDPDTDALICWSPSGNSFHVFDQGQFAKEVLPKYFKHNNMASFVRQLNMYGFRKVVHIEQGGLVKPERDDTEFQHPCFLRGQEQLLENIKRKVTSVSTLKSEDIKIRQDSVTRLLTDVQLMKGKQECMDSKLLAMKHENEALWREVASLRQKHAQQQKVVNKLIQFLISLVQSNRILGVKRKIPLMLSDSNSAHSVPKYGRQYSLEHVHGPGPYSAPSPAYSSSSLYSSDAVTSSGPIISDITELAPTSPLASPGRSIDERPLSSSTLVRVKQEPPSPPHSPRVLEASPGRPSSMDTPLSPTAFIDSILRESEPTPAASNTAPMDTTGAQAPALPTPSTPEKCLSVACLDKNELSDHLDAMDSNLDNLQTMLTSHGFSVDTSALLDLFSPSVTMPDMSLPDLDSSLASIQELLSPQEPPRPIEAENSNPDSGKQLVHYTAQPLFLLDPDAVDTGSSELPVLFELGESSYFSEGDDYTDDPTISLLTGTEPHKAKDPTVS
# [6] = NIH-3T3 fibroblast cytotoxicity, dose response, cytotoxicity control, cell-based, fluorescence, Alamar Blue, secondary assay (AID 2327); assay type: functional;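 further: NIH-3T3 mouse fibroblasts cultured with fluconazole at 8 µg/mL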
# [7] = C. albicans growth with fluconazole, confirmation, fluorescence, retest (AID 2467); assay type: functional, cell-based
# H9c2 = assay: cells; assay type: functional, cell-based; conditions: Rattus norvegicus, H9c2, Myocardium;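 further: confirmatory concentration-response retest of ultra-high-throughput screening hits for modulation of myocardial damage; cell death induced by hydrogen peroxide oxidative stress; compound pretreatment for 60 min then peroxide exposure for 2 h; potency is for protecting the cells against peroxide damage rather than for killing them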
# [8] = system: Streptococcus sp. 'group A'; assay: growth inhibition of control SK(-) GAS strain, dose response, counter-screen for streptokinase expression inhibitor project, luminescence, kanamycin, BacTiterGlo, confirmation (AID 1900); assay type: functional, organism-based
# Streptokinase A = biological target: T2, Streptokinase A (Streptococcus pyogenes serotype M1, UniProt P10520); assay: S. pyogenes streptokinase expression inhibitors, potency, dose response, plasminogen activation absorbance, OD405 (AID 1914); assay type: functional, Streptococcus pyogenes M1 GAS;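 further: secreted streptokinase activity via plasminogen activation per viability signal from cell pellet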
# T2 sequence (P10520 whole entry): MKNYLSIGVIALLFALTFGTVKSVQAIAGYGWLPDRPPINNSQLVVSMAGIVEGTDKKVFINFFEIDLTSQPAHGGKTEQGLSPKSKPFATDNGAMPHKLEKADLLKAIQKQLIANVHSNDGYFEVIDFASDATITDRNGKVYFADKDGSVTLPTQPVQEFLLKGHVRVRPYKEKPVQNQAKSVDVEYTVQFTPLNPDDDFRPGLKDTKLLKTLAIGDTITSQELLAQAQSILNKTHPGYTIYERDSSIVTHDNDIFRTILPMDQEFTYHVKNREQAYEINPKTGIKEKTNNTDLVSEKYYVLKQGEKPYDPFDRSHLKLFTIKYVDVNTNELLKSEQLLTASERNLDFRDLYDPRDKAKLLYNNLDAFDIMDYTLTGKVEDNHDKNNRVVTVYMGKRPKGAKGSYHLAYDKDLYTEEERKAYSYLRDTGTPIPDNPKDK
# Streptococcus = assay: Group A Streptococcus viability loss, dose response, counter-screen for streptokinase expression inhibitor project, luminescence, BacTiterGlo (AID 1915); assay type: functional, organism-based;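 further: potency for reduction of bacterial viability or growth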
# [9] = biological target: T3, Corticotropin-releasing factor receptor 2/Corticotropin-releasing factor-binding protein (Homo sapiens, UniProt P24387+Q13324); assay: activators of CRF receptor 2 with binding protein – uHTS hits, confirmation (AID 602473); assay type: functional; conditions: read-out: EC50_Mean
# T3 sequence (Q13324 whole entry): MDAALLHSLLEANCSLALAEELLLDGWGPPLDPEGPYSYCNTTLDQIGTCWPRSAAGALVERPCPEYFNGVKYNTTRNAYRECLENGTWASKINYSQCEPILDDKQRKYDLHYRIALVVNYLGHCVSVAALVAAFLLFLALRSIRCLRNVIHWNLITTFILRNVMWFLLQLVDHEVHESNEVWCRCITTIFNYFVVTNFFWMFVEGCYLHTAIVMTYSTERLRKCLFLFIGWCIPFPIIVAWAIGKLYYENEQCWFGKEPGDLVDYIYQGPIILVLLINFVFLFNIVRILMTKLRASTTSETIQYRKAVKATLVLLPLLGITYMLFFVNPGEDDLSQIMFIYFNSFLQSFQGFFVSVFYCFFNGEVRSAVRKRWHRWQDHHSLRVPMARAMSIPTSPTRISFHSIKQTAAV
# T3 sequence (P24387 whole entry): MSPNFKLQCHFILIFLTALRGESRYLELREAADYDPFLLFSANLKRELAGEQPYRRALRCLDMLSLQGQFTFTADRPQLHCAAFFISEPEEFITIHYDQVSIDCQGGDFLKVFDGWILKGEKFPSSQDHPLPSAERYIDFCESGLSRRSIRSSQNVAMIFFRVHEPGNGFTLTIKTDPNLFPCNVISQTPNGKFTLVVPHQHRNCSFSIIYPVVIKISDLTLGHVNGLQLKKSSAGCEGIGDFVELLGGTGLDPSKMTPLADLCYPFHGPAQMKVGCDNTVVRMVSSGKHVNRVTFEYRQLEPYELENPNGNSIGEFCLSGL
# [10] = biological target: T4, Replicative DNA helicase DnaB (Mycobacterium tuberculosis, UniProt P9WMR3); assay: DnaB intein splicing inhibitors, dose response, biochemical, cell-free fluorescence (AID 449749); assay type: functional
# T4 sequence (P9WMR3 whole entry): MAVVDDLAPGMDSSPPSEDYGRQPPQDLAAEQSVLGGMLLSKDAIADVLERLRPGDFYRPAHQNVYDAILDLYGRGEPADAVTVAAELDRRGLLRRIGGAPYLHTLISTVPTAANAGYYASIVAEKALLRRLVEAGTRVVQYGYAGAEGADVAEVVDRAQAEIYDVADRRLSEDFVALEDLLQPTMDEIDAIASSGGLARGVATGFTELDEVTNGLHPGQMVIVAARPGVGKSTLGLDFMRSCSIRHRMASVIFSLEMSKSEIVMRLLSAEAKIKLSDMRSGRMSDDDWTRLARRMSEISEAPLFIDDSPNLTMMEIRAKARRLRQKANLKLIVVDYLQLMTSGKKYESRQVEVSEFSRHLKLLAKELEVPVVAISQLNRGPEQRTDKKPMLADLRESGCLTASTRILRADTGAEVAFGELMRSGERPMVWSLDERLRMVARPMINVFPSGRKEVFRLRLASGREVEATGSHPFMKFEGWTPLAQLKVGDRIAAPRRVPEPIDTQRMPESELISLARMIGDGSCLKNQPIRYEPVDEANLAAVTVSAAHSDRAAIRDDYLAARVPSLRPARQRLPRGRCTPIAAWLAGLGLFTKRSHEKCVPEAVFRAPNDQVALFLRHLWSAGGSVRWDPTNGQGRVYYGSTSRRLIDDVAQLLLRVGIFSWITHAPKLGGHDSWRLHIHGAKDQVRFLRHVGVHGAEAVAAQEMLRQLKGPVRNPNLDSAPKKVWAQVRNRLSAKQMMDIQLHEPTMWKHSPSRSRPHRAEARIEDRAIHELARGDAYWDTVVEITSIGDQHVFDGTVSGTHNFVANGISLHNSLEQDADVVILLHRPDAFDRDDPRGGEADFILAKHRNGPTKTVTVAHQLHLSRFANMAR
# Protein RecA = biological target: T5, Protein RecA (Mycobacterium tuberculosis, UniProt P9WHJ3); assay: Fluorescence Cell-Free Homogeneous Dose Retest to Identify Inhibitors of RecA-Intein Splicing Activity. [Related pubchem assays (depositor defined):AID2097, AID2223, AID489010, AID492950]; assay type: functional
# T5 sequence (P9WHJ3 whole entry): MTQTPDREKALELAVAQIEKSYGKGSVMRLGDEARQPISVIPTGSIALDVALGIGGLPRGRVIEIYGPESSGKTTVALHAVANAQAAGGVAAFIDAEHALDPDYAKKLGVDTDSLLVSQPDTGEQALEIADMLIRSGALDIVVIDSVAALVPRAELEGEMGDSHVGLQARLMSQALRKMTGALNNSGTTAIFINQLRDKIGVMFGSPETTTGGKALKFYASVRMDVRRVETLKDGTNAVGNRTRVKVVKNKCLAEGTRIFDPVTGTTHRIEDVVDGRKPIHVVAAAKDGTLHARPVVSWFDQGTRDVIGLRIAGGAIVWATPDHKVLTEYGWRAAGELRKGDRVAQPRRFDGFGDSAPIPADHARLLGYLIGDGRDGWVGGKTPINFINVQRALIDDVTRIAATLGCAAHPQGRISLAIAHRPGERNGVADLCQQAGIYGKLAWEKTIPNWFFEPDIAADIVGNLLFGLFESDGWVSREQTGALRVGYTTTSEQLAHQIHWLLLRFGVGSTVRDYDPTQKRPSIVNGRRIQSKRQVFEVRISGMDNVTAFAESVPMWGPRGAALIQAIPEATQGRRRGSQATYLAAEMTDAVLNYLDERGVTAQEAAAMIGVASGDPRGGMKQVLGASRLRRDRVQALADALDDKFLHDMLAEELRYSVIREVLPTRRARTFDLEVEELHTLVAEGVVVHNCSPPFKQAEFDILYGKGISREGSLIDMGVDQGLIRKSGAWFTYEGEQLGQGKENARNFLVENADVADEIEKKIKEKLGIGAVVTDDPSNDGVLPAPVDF
# Genome polyprotein = Genome polyprotein (dengue virus type 2, UniProt P29990); assay: Dengue-2 NS5 methyltransferase inhibitors, primary screen, biochemical, confirmation dose response (AID 588689); assay type: functional
# Sequence of Genome polyprotein (P29990 2492-3391 limits assumed): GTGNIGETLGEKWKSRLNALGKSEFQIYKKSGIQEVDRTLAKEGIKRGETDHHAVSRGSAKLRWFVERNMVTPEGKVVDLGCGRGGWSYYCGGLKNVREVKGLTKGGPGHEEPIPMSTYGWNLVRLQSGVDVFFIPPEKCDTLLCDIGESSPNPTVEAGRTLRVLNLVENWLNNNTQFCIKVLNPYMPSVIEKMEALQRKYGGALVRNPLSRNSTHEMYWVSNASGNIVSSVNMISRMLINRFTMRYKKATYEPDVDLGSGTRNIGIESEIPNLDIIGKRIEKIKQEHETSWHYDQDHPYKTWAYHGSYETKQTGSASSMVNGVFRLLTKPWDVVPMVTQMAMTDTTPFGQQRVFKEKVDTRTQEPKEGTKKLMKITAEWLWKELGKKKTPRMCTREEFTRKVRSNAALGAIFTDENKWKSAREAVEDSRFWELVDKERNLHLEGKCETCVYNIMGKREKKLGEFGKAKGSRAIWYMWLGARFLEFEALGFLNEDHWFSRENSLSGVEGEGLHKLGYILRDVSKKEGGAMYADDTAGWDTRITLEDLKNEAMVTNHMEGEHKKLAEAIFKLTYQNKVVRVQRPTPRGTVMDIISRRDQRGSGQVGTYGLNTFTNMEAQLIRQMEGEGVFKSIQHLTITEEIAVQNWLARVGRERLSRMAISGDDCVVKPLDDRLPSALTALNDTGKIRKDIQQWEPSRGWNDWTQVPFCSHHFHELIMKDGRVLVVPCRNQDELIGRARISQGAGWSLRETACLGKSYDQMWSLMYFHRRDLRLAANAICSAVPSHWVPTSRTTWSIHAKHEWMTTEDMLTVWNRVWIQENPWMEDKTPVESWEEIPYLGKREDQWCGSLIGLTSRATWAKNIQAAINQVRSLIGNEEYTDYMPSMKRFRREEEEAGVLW
# [11] = Shn3 3'UTR reporter inhibitors, dose response, cell-based, Clone20 osteoblasts, firefly luciferase, cherry-picked (AID 624132); assay type: functional;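 further: firefly luciferase luminescence from reporter carrying the Shn3 3'UTR in osteoblasts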
compound,measurement,setting,value
c1ccc(-c2cnnc(SCc3cn4cccnc4n3)n2)cc1,EC50,BJ [1],> 150 µM (not active)
same,EC50,BJ [2],> 150 µM (inconclusive)
same,EC50,BJ [3],> 150 µM (inconclusive)
same,EC50,[4],24.9 µM (active)
Cc1noc(C)c1COC(=O)c1ccccc1Oc1ccccc1,EC50,[5],> 260 µM (inactive)
CC(C)Cc1ccc(CN2CCCC(NC(=O)CCN3CCCO3)C2)cc1 (centres undefined),EC50,[6],> 160 µM (inconclusive)
same,EC50,[7],> 38 µM (not active)
COc1cc(NC(=O)c2c(OC)cccc2OC)ccc1NC(=O)c1cc2ccccc2o1,IC50,H9c2,> 79 µM (inactive)
Cc1ccc2nc(NCc3ccccc3)c(C=O)c(=O)n2c1,EC50,[5],> 260 µM (inactive)
CC(Sc1ccc(Cl)cc1)C(=O)NCc1ccc2c(c1)OCO2 (centres undefined),EC50,[6],> 150 µM (inactive)
same,EC50,[7],2.94 µM (active)
CCCc1nc2ccc(NC(=O)c3cccs3)cc2c(=O)n1Cc1ccccc1Cl,EC50,[5],> 260 µM (inactive)
COc1cccc(OC)c1C(=O)Nc1cc(C)nn1-c1nc2ccccc2[nH]1,EC50,[8],15.5 µM (active)
same,EC50,Streptokinase A,> 150 µM (not active)
same,EC50,Streptococcus,> 150 µM (not active)
same,IC50,H9c2,> 79 µM (inactive)
COc1cc(NC(=O)c2ccco2)c(C(=O)OCC(=O)c2c[nH]c3ccccc23)cc1OC,IC50,H9c2,> 79 µM (inactive)
CCC1(CC)NC(=O)N(CC(=O)OCC(=O)Nc2ccccc2[N+](=O)[O-])C1=O,IC50,H9c2,11.9 µM (active)
O=C(Cn1[nH]c(=O)c2ccccc2c1=O)NCC1COc2ccccc2O1 (centres undefined),IC50,H9c2,48.7 µM (inactive)
O=C(CCN1C(=O)/C(=C/c2ccc(Cl)cc2)SC1=S)Nc1cccnc1,EC50,BJ [1],14.9 µM (active)
same,EC50,BJ [2],> 150 µM (not active)
same,EC50,BJ [3],> 150 µM (not active)
same,EC50,[4],24.7 µM (active)
CC(C)c1ccc2c(c1)[C@H]1OCC[C@H]1[C@@H](c1cccs1)N2,EC50,[5],> 260 µM (inactive)
COc1ccc(-n2cccc2/C=C2\C(=N)N3N=C(C(C)C)SC3=NC2=O)cc1,EC50,[6],> 150 µM (inactive)
same,EC50,[7],> 38 µM (not active)
COc1ccc(OC)c(N(CC(=O)N2CCC(C)CC2)S(=O)(=O)c2ccccc2)c1,EC50,[5],> 260 µM (inactive)
Cc1c(-c2nnc(S)n2-c2ccc(C(F)(F)F)cc2)nnn1-c1ccccc1,EC50,[5],> 260 µM (inactive)
COc1cccc(NC(=S)NC(=O)Cc2ccc(Cl)cc2)c1,EC50,[9],5.76 µM (active)
COc1cc(C(=O)NCCc2ccc(F)cc2)ccc1OCC(=O)N1CCOCC1,EC50,[5],> 260 µM (inactive)
O=S(=O)(NC1CCCCC1N1CCN(c2ccccc2F)CC1)c1ccc(Cl)cc1 (centres undefined),EC50,[9],6.24 µM (active)
CC(C)c1ccc(N(C(=O)CNC(=O)c2ccco2)C(C(=O)NC2CCCC2)c2ccncc2)cc1 (centres undefined),EC50,[5],> 260 µM (inactive)
CCc1nc2ccccc2c(C(=O)OCc2nc(O)c3ccccc3n2)c1C,IC50,H9c2,5.84 µM (active)
O=C(Nc1ccccc1)c1cccc2c(-c3cccnc3)coc12,IC50,H9c2,> 79 µM (inactive)
CCCCc1ccc(/N=C/C2=C(O)OC3(CCCCC3)OC2=O)cc1,EC50,[9],5.81 µM (active)
O=C(N/N=C/c1ccccn1)c1cc(-c2ccncc2)nc2ccccc12,IC50,H9c2,> 79 µM (inactive)
COC1=CC(=O)C(O)=C(CCCCCCC/C=C/CCCCCCCC2=C(O)C(=O)C=C(OC)C2=O)C1=O,EC50,[6],> 160 µM (inactive)
same,EC50,[7],> 38 µM (not active)
same,AC50,[10],2.6 µM (active)
same,EC50,Protein RecA,2.13 µM (active)
same,IC50,Genome polyprotein,10.8 µM (active)
O=C(N/N=C/c1ccc2c(c1)OCO2)c1cc(-c2ccccc2Cl)nc2ccccc12,EC50,[6],94.7 µM (inconclusive)
same,EC50,[7],0.684 µM (active)
CC(=O)OCC(=O)[C@@]1(O)CC[C@H]2[C@@H]3CCC4=CC(=O)CC[C@]4(C)[C@H]3C(=O)C[C@@]21C [CORTISONE ACETATE],AC50,[11],28.3 µM (active)
